# Patent US10544150B2, “NK-3 receptor selective antagonist compounds, pharmaceutical composition and methods for use in NK-3 receptors mediated disorders” (Ogeda SA, priority 2010, dated 2020)
# Tested on: circulating levels of luteinizing hormone (LH)
# Assay: Castrated male rat model, circulating levels of luteinizing hormone (LH)
# Format: in vivo
# Conditions: castrated male SD rats, single intravenous dose (156 and 144: 10 mg/kg; 71: 15 mg/kg; 114: 20 mg/kg), 60 min post dosing (156 also 120 min), vs. baseline
row,SMILES,effect on LH serum levels
1,"C[C@@H]1c2nnc(-c3ccc4ccccc4n3)n2CCN1C(=O)c1ccc(-c2cccs2)cc1 [Compound 144, (R)-(8-methyl-3-(quinolin-2-yl)-5,6-dihydro-[1,2,4]triazolo[4,3-a]pyrazin-7(8H)-yl)(4-(thiophen-2-yl)phenyl)methanone]",significantly suppressed GnRH-mediated elevation of LH
2,"CC1c2nnc(-c3coc(-c4ccccc4)n3)n2CCN1C(=O)c1ccc(-c2cccs2)cc1 (stereo not shown) [Compound 114, (8-methyl-3-(2-phenyloxazol-4-yl)-5,6-dihydro-[1,2,4]triazolo[4,3-a]pyrazin-7(8H)-yl)(4-(thiophen-2-yl)phenyl)methanone]",significantly suppressed GnRH-mediated elevation of LH
3,"C[C@@H]1c2nnc(-c3csc(-c4ccc(F)cc4)n3)n2CCN1C(=O)c1ccc(F)cc1 [Compound 71, (R)-(4-fluorophenyl)(3-(2-(4-fluorophenyl)thiazol-4-yl)-8-methyl-5,6-dihydro-[1,2,4]triazolo[4,3-a]pyrazin-7(8H)-yl)methanone]",significantly suppressed GnRH-mediated elevation of LH

# Target: human NK-3 receptor (Homo sapiens (Human), UniProt P29371)
# Sequence (P29371 whole entry): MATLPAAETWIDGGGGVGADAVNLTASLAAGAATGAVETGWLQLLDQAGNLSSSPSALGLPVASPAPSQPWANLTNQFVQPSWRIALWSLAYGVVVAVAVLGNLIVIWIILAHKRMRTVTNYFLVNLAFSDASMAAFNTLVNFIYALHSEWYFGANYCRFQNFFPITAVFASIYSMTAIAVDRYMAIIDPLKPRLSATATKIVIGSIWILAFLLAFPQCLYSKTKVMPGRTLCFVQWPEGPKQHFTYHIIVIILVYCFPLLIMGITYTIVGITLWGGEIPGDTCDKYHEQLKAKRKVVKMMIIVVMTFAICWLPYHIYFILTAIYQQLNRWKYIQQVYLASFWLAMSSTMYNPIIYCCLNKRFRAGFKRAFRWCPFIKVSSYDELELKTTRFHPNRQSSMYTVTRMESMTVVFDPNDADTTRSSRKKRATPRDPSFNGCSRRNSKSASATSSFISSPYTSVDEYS
# Assay: 3H-SB222200 binding competition assay with human NK-3 receptor
# Conditions: 3H-SB222200 displacement, CHO cell membranes expressing human NK3 receptor; read-out: Ki range
# Outline: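 Membranes from CHO cells expressing human NK3 receptor incubated with 5 nM 3H-SB222200 and test compound in HEPES 25 mM/NaCl 0.1M/CaCl2 1 mM/MgCl2 5 mM/BSA 0.5%/saponin 10 μg/ml, pH 7.4. Bound radioligand counted after filtration; Ki calculated, reported in bands (+++ <500 nM to # >5 μM).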
row,SMILES,Ki
1,"CC1(C)CCN(c2nc(-c3nnc4n3CCN(C(=O)c3ccc(-c5cccs5)cc3)C4)cs2)CC1 [Compound 274, (3-(2-(4,4-dimethylpiperidin-1-yl)thiazol-4-yl)-5,6-dihydro-[1,2,4]triazolo[4,3-a]pyrazin-7(8H)-yl)(4-(thiophen-2-yl)phenyl)methanone]",500 to 1000 nM
2,"O=C(c1ccc(F)cc1)N1CCn2c(nnc2-c2cccc(N3CCOCC3)n2)C1 [Compound 38, (4-fluorophenyl)(3-(6-morpholinopyridin-2-yl)-5,6-dihydro-[1,2,4]triazolo[4,3-a]pyrazin-7(8H)-yl)methanone]",< 500 nM
3,"O=C(c1ccc(F)cc1)N1CCn2c(nnc2-c2coc(-c3ccccc3)n2)C1 [Compound 47, (4-fluorophenyl)(3-(2-phenyloxazol-4-yl)-5,6-dihydro-[1,2,4]triazolo[4,3-a]pyrazin-7(8H)-yl)methanone]",< 500 nM
4,"O=C(c1ccc(F)cc1)N1CCn2c(nnc2-c2csc(-c3ccc(F)cc3F)n2)C1 [Compound 29, (3-(2-(2,4-difluorophenyl)thiazol-4-yl)-5,6-dihydro-[1,2,4]triazolo[4,3-a]pyrazin-7(8H)-yl)(4-fluorophenyl)methanone]",< 500 nM
5,"CN1CCN(c2ccc(-c3nc(-c4nnc5n4CCN(C(=O)c4ccc(F)cc4)C5)cs3)cc2)CC1 [Compound 242, (4-fluorophenyl)(3-(2-(4-(4-methylpiperazin-1-yl)phenyl)thiazol-4-yl)-5,6-dihydro-[1,2,4]triazolo[4,3-a]pyrazin-7(8H)-yl)methanone]",500 to 1000 nM
6,"CC(C)Cc1nc(-c2nnc3n2CCN(C(=O)c2ccc(F)cc2)C3)cs1 [Compound 259, (4-fluorophenyl)(3-(2-isobutylthiazol-4-yl)-5,6-dihydro-[1,2,4]triazolo[4,3-a]pyrazin-7(8H)-yl)methanone]",1000 to 5000 nM
7,"O=C(c1cc(-c2ccc(Cl)cc2Cl)n[nH]1)N1CCn2c(nnc2-c2ccccn2)C1 [Compound 13, (3-(2,4-dichlorophenyl)-1H-pyrazol-5-yl)(3-(pyridin-2-yl)-5,6-dihydro-[1,2,4]triazolo[4,3-a]pyrazin-7(8H)-yl)methanone]",1000 to 5000 nM
8,"O=C(C1CCC(c2ccccc2)CC1)N1CCn2c(nnc2-c2ccc3ccccc3n2)C1 (stereo not shown) [Compound 93, (4-phenylcyclohexyl)(3-(quinolin-2-yl)-5,6-dihydro-[1,2,4]triazolo[4,3-a]pyrazin-7(8H)-yl)methanone]",1000 to 5000 nM
9,"O=C(c1ccc(-c2ccc(F)cc2)cc1)N1CCn2c(nnc2-c2nc(-c3ccc(F)cc3)no2)C1 [Compound 205, (4′-fluoro-[1,1′-biphenyl]-4-yl)(3-(3-(4-fluorophenyl)-1,2,4-oxadiazol-5-yl)-5,6-dihydro-[1,2,4]triazolo[4,3-a]pyrazin-7(8H)-yl)methanone]",500 to 1000 nM
10,"O=C(c1ccc(F)cc1)N1CCn2c(nnc2-c2csc(N3CCCC3)n2)C1 [Compound 249, (4-fluorophenyl)(3-(2-(pyrrolidin-1-yl)thiazol-4-yl)-5,6-dihydro-[1,2,4]triazolo[4,3-a]pyrazin-7(8H)-yl)methanone]",< 500 nM

# More lines, now with the values ahead:
row,Ki,SMILES
1,< 500 nM,"C[C@@H]1c2nnc(-c3ccc4ccccc4n3)n2CCN1C(=O)c1ccc(-c2cccs2)cc1 [Compound 144, (R)-(8-methyl-3-(quinolin-2-yl)-5,6-dihydro-[1,2,4]triazolo[4,3-a]pyrazin-7(8H)-yl)(4-(thiophen-2-yl)phenyl)methanone]"
2,< 500 nM,"CC1c2nnc(-c3coc(-c4ccccc4)n3)n2CCN1C(=O)c1ccc(-c2cccs2)cc1 (stereo not shown) [Compound 114, (8-methyl-3-(2-phenyloxazol-4-yl)-5,6-dihydro-[1,2,4]triazolo[4,3-a]pyrazin-7(8H)-yl)(4-(thiophen-2-yl)phenyl)methanone]"
3,< 500 nM,"C[C@@H]1c2nnc(-c3csc(-c4ccc(F)cc4)n3)n2CCN1C(=O)c1ccc(F)cc1 [Compound 71, (R)-(4-fluorophenyl)(3-(2-(4-fluorophenyl)thiazol-4-yl)-8-methyl-5,6-dihydro-[1,2,4]triazolo[4,3-a]pyrazin-7(8H)-yl)methanone]"
4,< 500 nM,"O=C(c1ccc(-c2cccs2)cc1)N1CCn2c(nnc2-c2csc(-c3cccc(F)c3)n2)C1 [Compound 207, (3-(2-(3-fluorophenyl)thiazol-4-yl)-5,6-dihydro-[1,2,4]triazolo[4,3-a]pyrazin-7(8H)-yl)(4-(thiophen-2-yl)phenyl)methanone]"
5,> 5000 nM,"C[C@H]1c2nnc(-c3ccccn3)n2CCN1C(=O)c1ccc(F)cc1 [Compound 159, (S)-(4-fluorophenyl)(8-methyl-3-(pyridin-2-yl)-5,6-dihydro-[1,2,4]triazolo[4,3-a]pyrazin-7(8H)-yl)methanone]"
6,< 500 nM,"CC1c2nnc(-c3csc(-c4ccc(F)cc4F)n3)n2CCN1C(=O)c1ccc(-c2ccccc2)cc1 (stereo not shown) [Compound 79, [1,1′-biphenyl]-4-yl(3-(2-(2,4-difluorophenyl)thiazol-4-yl)-8-methyl-5,6-dihydro-[1,2,4]triazolo[4,3-a]pyrazin-7(8H)-yl)methanone]"
7,< 500 nM,"CC1c2nnc(-c3csc(-c4ccccc4)n3)n2CCN1C(=O)c1ccc(-c2cccs2)cc1 (stereo not shown) [Compound 62, (8-methyl-3-(2-phenylthiazol-4-yl)-5,6-dihydro-[1,2,4]triazolo[4,3-a]pyrazin-7(8H)-yl)(4-(thiophen-2-yl)phenyl)methanone]"
8,< 500 nM,"C[C@H]1c2nnc(-c3ccc4ccccc4n3)n2CCN1C(=O)c1ccc(F)cc1 [Compound 162, (S)-(4-fluorophenyl)(8-methyl-3-(quinolin-2-yl)-5,6-dihydro-[1,2,4]triazolo[4,3-a]pyrazin-7(8H)-yl)methanone]"
9,< 500 nM,"O=C(c1ccc(-c2ccccc2)cc1)N1CCn2c(nnc2-c2coc(-c3ccccc3)n2)C1 [Compound 50, [1,1′-biphenyl]-4-yl(3-(2-phenyloxazol-4-yl)-5,6-dihydro-[1,2,4]triazolo[4,3-a]pyrazin-7(8H)-yl)methanone]"
10,< 500 nM,"O=C(c1ccc(-c2cccs2)cc1)N1CCn2c(nnc2-c2csc(-c3ccccc3OCCO)n2)C1 [Compound 281, (3-(2-(2-(2-hydroxyethoxy)phenyl)thiazol-4-yl)-5,6-dihydro-[1,2,4]triazolo[4,3-a]pyrazin-7(8H)-yl)(4-(thiophen-2-yl)phenyl)methanone]"
11,< 500 nM,"CC1c2nnc(-c3csc(N4CCOCC4)n3)n2CCN1C(=O)c1ccc(-c2ccccc2)cc1 (stereo not shown) [Compound 46, [1,1′-biphenyl]-4-yl(8-methyl-3-(2-morpholinothiazol-4-yl)-5,6-dihydro-[1,2,4]triazolo[4,3-a]pyrazin-7(8H)-yl)methanone]"
12,< 500 nM,"Cc1ccsc1-c1ccc(C(=O)N2CCn3c(-c4csc(-c5ccc(F)cc5)n4)nnc3C2C)cc1 (stereo not shown) [Compound 268, (3-(2-(4-fluorophenyl)thiazol-4-yl)-8-methyl-5,6-dihydro-[1,2,4]triazolo[4,3-a]pyrazin-7(8H)-yl)(4-(3-methylthiophen-2-yl)phenyl)methanone]"
